Results reported in patent US6486098B1, “Herbicidal phenoxypropionic acid N-alkyl-N-2-fluorophenyl amide compounds” (Dongbu Hannong Chemical Co. Ltd., priority 1999, dated 2002).
“And” between values parts separate entries of the source, which are not always exact repeats. Identical values can stand only once.

Key:
rice = test: Leaf treatment test, 4 leaves, rice (Table 7); type: in vivo, Oryza sativa L. cv. Dongjin
Protocol: (§1) Seeds of rice, wheat, barley, corn, cotton, barnyard grass, common sorgum, large crabgrass and fall panicum were seeded at a pot with a surface area of 600 cm^2. […] 14 days after the treatment, the degree of damage to the plants was rated in % damage in comparison to the development of untreated control.
(§2) Among the compounds of the formula (1), herbicidal activity of the compounds in table 5 is represented in the following table 6 and 7.

ZEAMX (Corn) = test: Leaf treatment test, corn; type: in vivo, Zea mays L.; settings: 14 days after treatment
Protocol: as §1

DIGSA (Large crabgrass) = test: Leaf treatment test, large crabgrass; type: in vivo, Digitaria Sanguinalis (L.) SCOP; settings: 14 days after treatment
Protocol: as §1

GLXMA (Soy bean) = test: Leaf treatment test, soy bean; type: in vivo, Glycine max (L.) MERR; settings: 14 days after treatment
ORYSA (Rice) = test: Leaf treatment test, rice; type: in vivo, Oryza sativa L. cv. Dongjin; settings: 14 days after treatment
Protocol: as §1

Barnyard grass = test: Leaf treatment test, 4 leaves, barnyard grass (Table 7); type: in vivo, Echinochloa crus-galli Beauv. var. caudata Kitagawa
Protocol: as §1, §2

PANDI (Fall panicum) = test: Leaf treatment test, fall panicum; type: in vivo, Panicum dichotomiflorum Michx; settings: 14 days after treatment
Protocol: as §1

GOSHI (Cotton) = test: Leaf treatment test, cotton; type: in vivo, Gossypium; settings: 14 days after treatment
Protocol: as §1

TRZAW (Wheat) = test: Leaf treatment test, wheat; type: in vivo, Triticum aestivum L.; settings: 14 days after treatment
Protocol: as §1

SORBI (Common sorgum) = test: Leaf treatment test, common sorgum; type: in vivo, Andropogon sorghum; settings: 14 days after treatment
Protocol: as §1

ECHCG (Barnyard grass) = test: Leaf treatment test, barnyard grass; type: in vivo, Echinochloa crus-galli Beauv. var. caudata Kitagawa; settings: leaf treatment at three leaves, 14 days after treatment
Protocol: as §1

barnyard grass (ECHOR) = test: Experimental Example 2, herbicidal effect on barnyard grass ECHOR; type: in vivo, Ecliinocgloa crus-galli Beauv. var. orygicola Ohwi; settings: 1˜2 tillering, 200 g a.i per hactare on the leaves, Tech. 98%
Text: (§3) Rice[Oryza sativa. L. cv.
(§4) The result is represented in the following table 8.

barnyard grass (ECHCG) = test: Experimental Example 2, herbicidal effect on barnyard grass ECHCG; type: in vivo, Eclzinocgloa crus-galli beauv. var. caudate Kitagawa; settings: 1˜2 tillering, 200 g a.i per hactare on the leaves, Tech. 98%
Text: as §3, §4

Rice (ORYSA) = settings: 6.0˜6.5 leaves, 200 g a.i per hactare on the leaves, Tech. 98%
Protocol: Rice[Oryza sativa. L. cv. Chuchong(ORYSA)] and barnyard grass [Eclzinocgloa crus-galli beauv. var. caudate Kitagawa(ECHCG) and Ecliinocgloa crus-galli Beauv. var. orygicola Ohwi (ECHOR)] were planted and grown. The test compounds with 98% purity was dissolved in acetone containing tween-20 and diluted with water. Each maximum concentration of acetone and tween-20 were 25% and 0.1%.
The solution was sprayed in a proportion of 200 g a.i per hactare on the leaves. When rice{ORYSA} had 6.0˜6.5 leaves with 32.8 cm of the first leaf, barnyard grass(ECHOR) had 1˜2 tillering with 37.3 cm of the first leaf and barnyard grass(ECHCG) had 1˜2 tillering with 44.4 cm of the first leaf.
20 and 30 days after treatment (DAT) herbicidal effect and toxicity were measured.

| SMILES | degree of damage to the plants (% damage) (ZEAMX (Corn); treated amount 0.025 kg/ha) | degree of damage to the plants (% damage) (ZEAMX (Corn); treated amount 0.1 kg/ha) | degree of damage to the plants (% damage) (ZEAMX (Corn); treated amount 0.4 kg/ha) | degree of damage to the plants (% damage) (DIGSA (Large crabgrass); treated amount 0.025 kg/ha) | degree of damage to the plants (% damage) (DIGSA (Large crabgrass); treated amount 0.1 kg/ha) | degree of damage to the plants (% damage) (DIGSA (Large crabgrass); treated amount 0.4 kg/ha) | degree of damage to the plants (% damage) (GLXMA (Soy bean); treated amount 0.025 kg/ha) | degree of damage to the plants (% damage) (GLXMA (Soy bean); treated amount 0.4 kg/ha) | degree of damage to the plants (% damage) (ORYSA (Rice); treated amount 0.025 kg/ha) | degree of damage to the plants (% damage) (ORYSA (Rice); treated amount 0.1 kg/ha) | degree of damage to the plants (% damage) (ORYSA (Rice); treated amount 0.4 kg/ha) | degree of damage to the plants (% damage) (PANDI (Fall panicum); treated amount 0.025 kg/ha) | degree of damage to the plants (% damage) (PANDI (Fall panicum); treated amount 0.1 kg/ha) | degree of damage to the plants (% damage) (PANDI (Fall panicum); treated amount 0.4 kg/ha) | degree of damage to the plants (% damage) (GOSHI (Cotton); treated amount 0.025 kg/ha) | degree of damage to the plants (% damage) (GOSHI (Cotton); treated amount 0.1 kg/ha) | degree of damage to the plants (% damage) (GOSHI (Cotton); treated amount 0.4 kg/ha) | degree of damage to the plants (% damage) (TRZAW (Wheat); treated amount 0.025 kg/ha) | degree of damage to the plants (% damage) (SORBI (Common sorgum); treated amount 0.025 kg/ha) | degree of damage to the plants (% damage) (SORBI (Common sorgum); treated amount 0.1 kg/ha) | also measured |
| --- | --- | --- | --- | --- | --- | --- | --- | --- | --- | --- | --- | --- | --- | --- | --- | --- | --- | --- | --- | --- | --- |
| CC(Oc1ccc(Oc2nc3ccc(Cl)cc3o2)cc1)C(=O)N(C)c1ccccc1F (centres unmarked) [Compound No. 1, 2-[4-(6-Chloro-2-benzoxazoyloxy)-phenoxy]propionic Acid-N-(2-fluorophenyl)-N-methylamide] | 0% | 70% | 100% | 100% | 100% | 100% | 0% | 20% | 0% | 0% | 0% | 100% | 100% | 100% | 0% | 0% | 0% | 0% | 100% | 100% | degree of damage to the plants (% damage) (rice; treated amount 0.016 kg/ha): 0%; degree of damage to the plants (% damage) (rice; treated amount 0.063 kg/ha): 0%; degree of damage to the plants (% damage) (rice; treated amount 0.25 kg/ha): 0%; degree of damage to the plants (% damage) (rice; treated amount 1.0 kg/ha): 0%; degree of damage to the plants (% damage) (GLXMA (Soy bean); treated amount 0.1 kg/ha): 0%; degree of damage to the plants (% damage) (Barnyard grass; treated amount 0.016 kg/ha): 75%; degree of damage to the plants (% damage) (Barnyard grass; treated amount 0.063 kg/ha): 100%; degree of damage to the plants (% damage) (Barnyard grass; treated amount 0.25 kg/ha): 100%; degree of damage to the plants (% damage) (Barnyard grass; treated amount 1.0 kg/ha): 100%; degree of damage to the plants (% damage) (TRZAW (Wheat); treated amount 0.1 kg/ha): 0%; degree of damage to the plants (% damage) (TRZAW (Wheat); treated amount 0.4 kg/ha): 0%; degree of damage to the plants (% damage) (SORBI (Common sorgum); treated amount 0.4 kg/ha): 100%; degree of damage to the plants (% damage) (ECHCG (Barnyard grass); treated amount 0.025 kg/ha): 90%; degree of damage to the plants (% damage) (ECHCG (Barnyard grass); treated amount 0.1 kg/ha): 100%; degree of damage to the plants (% damage) (ECHCG (Barnyard grass); treated amount 0.4 kg/ha): 100% |
| CCOc1ccc(N(C)C(=O)C(C)Oc2ccc(Oc3nc4ccc(Cl)cc4o3)cc2)c(F)c1 (centres unmarked) [Compound No. 12] | 0% | 0% | 0% | 80% | 100% | 100% | 0% | 0% | 0% | 0% | 00% | 0% | 0% | 0% | 0% | 0% | 0% | 0% | 0% | 0% | degree of damage to the plants (% damage) (GLXMA (Soy bean); treated amount 0.1 kg/ha): 0%; degree of damage to the plants (% damage) (TRZAW (Wheat); treated amount 0.1 kg/ha): 0%; degree of damage to the plants (% damage) (TRZAW (Wheat); treated amount 0.4 kg/ha): 0%; degree of damage to the plants (% damage) (SORBI (Common sorgum); treated amount 0.4 kg/ha): 30%; degree of damage to the plants (% damage) (ECHCG (Barnyard grass); treated amount 0.025 kg/ha): 0%; degree of damage to the plants (% damage) (ECHCG (Barnyard grass); treated amount 0.1 kg/ha): 0%; degree of damage to the plants (% damage) (ECHCG (Barnyard grass); treated amount 0.4 kg/ha): 30% |
| CC(Oc1ccc(Oc2nc3ccc(Cl)cc3o2)cc1)C(=O)Nc1ccccc1F (centres unmarked) [control 1, 2-[4-(6-Chloro-2-benzoxazoyloxy)-phenoxy]propionic Acid-N-(2-fluorophenyl)amide, reference compound] | 100% and 80% | 100% | 100% | 100% | 100% | 100% | 0% | 40% and 30% | 35% and 40% | 50% and 70% | 70% and 90% | 100% and 95% | 100% | 100% | 0% | 0% | 0% | 0% | 100% | 100% | activity (0˜100), 20 DAT ECHOR (barnyard grass (ECHOR)): 100; activity (0˜100), 20 DAT ECHCG (barnyard grass (ECHCG)): 100; degree of damage to the plants (% damage) (SORBI (Common sorgum); treated amount 0.4 kg/ha): 100%; degree of damage to the plants (% damage) (ECHCG (Barnyard grass); treated amount 0.025 kg/ha): 100%; degree of damage to the plants (% damage) (ECHCG (Barnyard grass); treated amount 0.1 kg/ha): 100%; degree of damage to the plants (% damage) (ECHCG (Barnyard grass); treated amount 0.4 kg/ha): 100%; toxicity (0˜100) 20 DAT (Rice (ORYSA); 20 DAT): 22; toxicity (0˜100) 30 DAT (Rice (ORYSA); 30 DAT): 39 |
| CCOC(=O)C(C)Oc1ccc(Oc2nc3ccc(Cl)cc3o2)cc1 (centres unmarked) [control 2, Fenoxaprop-ethyl, reference compound] | – | – | – | – | – | – | – | – | – | – | – | – | – | – | – | – | – | – | – | – | degree of damage to the plants (% damage) (rice; treated amount 0.016 kg/ha): 20%; degree of damage to the plants (% damage) (rice; treated amount 0.063 kg/ha): 30%; degree of damage to the plants (% damage) (rice; treated amount 0.25 kg/ha): 70%; degree of damage to the plants (% damage) (rice; treated amount 1.0 kg/ha): 85%; degree of damage to the plants (% damage) (Barnyard grass; treated amount 0.016 kg/ha): 95%; degree of damage to the plants (% damage) (Barnyard grass; treated amount 0.063 kg/ha): 100%; degree of damage to the plants (% damage) (Barnyard grass; treated amount 0.25 kg/ha): 100%; degree of damage to the plants (% damage) (Barnyard grass; treated amount 1.0 kg/ha): 100% |
